Experiments:
Assay type in all cases: cell-based, human
[1] = test system: PC3 cells; assay: Colony formation (clonogenic) assay; settings: PC3, 2 weeks; 8-12 1-3 μM, cysmethynil 15-25 μM
Procedure: A flask ([…]) of PC3 cells in media (DMEM high glucose, 10% fetal bovine serum, 50 μg/mL penicillin, 50 μg/mL streptomycin) was grown to 80-90% confluency. The media was removed by pipetting and the cell layer washed with 1×PBS (5 mL). An aliquot of trypsin (1 mL, 0.25% trypsin-EDTA (1×)-phenol red, Invitrogen) was added to the plate, tapped gently for even distribution and incubated at 37° C., 5% CO2 for 1 min. The plate was quickly viewed under the microscope to confirm that cells have rounded up. Media (10 mL) was then added and the cell suspension transferred to a falcon tube (15 mL). An aliquot (10 μl) was transferred to a hemocytometer for cell counting. The suspension was then diluted to give the desired seeding concentration of 1000 cells per well in a 6-well plate. After seeding, the plate was gently tapped to help cells spread out within the wells. Plates were then incubated for 2 h (37° C., 5% CO2) for cell attachment to take place. The media was removed with a pipette, the cell layer in the well washed with PBS and replaced by a solution of the test compound in 2 mL of DMEM (containing 5% FBS, instead of 10% FBS). Test compounds were prepared in DMSO stock solutions. The final concentration of DMSO in the well was 0.05% v/v. Control plates were also prepared in which no test compound was added but with DMSO maintained at 0.05%. […]

[2] = test system: PC3 cells; assay: Cell cycle analysis by flow cytometry; settings: PC3, 48 h
Procedure: PC3 cells were seeded at 100 000 cells/mL per well in 6-well plates with media DMEM (high glucose, 10% FBS, 50 μg/mL penicillin, 50 μg/mL streptomycin) and incubated (24 h, 37° C., 5% CO2) to allow cell attachment after which they were treated with test compound (in DMEM, high glucose, 5% FBS, 50 μg/mL penicillin, 50 μg/mL streptomycin) for 48 h. Final volume of DMSO per well was 0.05% v/v. Control wells (without test compound) were similarly treated. After the specified time, supernatant in the well was collected; the cell pellet was trypsinized, combined with the supernatant and pelleted by centrifugation (150 g, 5 min). After rinsing the pellet twice with ice-cold 1×PBS, the cells were suspended in 0.3 mL PBS, to which was added dropwise and with gentle shaking, cold ethanol (0.7 mL) to give a final concentration of 70% ethanol. The cell sample was then kept at 4° C. overnight after which it was centrifuged (150 g, 5 min), the supernatant was removed, the pellet rinsed with cold PBS and re-suspended in a solution of 100 μg/mL propidium iodide (PI, Sigma Aldrich, Singapore) and 0.1 mg/mL ribonuclease A (Sigma Aldrich, Singapore) in PBS (500 μL). The suspension was kept in the dark for 1 h, 25° C. (room temperature) before being analyzed for distribution in the G1,S, G2/M phases on a FCS500 flow cytometer (Beckman Coulter, CA) using the FlowJo® software (http: http://www.flowjo.com/) Each test compound was evaluated at 4 concentrations with 2 repeats per concentration.

[3] = test system: MDA MB 231 cells; assay: Western blot of autophagy marker LC3-II; settings: MDA MB 231, 24 h and 48 h
Procedure: (§1) MDA MB231, PC3 and HepG2 cells were seeded at 65 000 cells/mL per well in […] with DMEM (high glucose, supplemented with 10% FBS, 50 μg/mL penicillin, 50 μg/mL streptomycin) as media. Plates were incubated (24 h, 37° C., 5% CO2) for cells to attach and then treated with test compound (prepared in same media but with 5% FBS) for 24 h or 48 h. Final volume of DMSO per well was kept at 0.05% v/v. After the specified time, the supernatant was removed from the well by pipetting, the cell pellet was trypsinized, and pelleted by centrifugation (150 g, 5 min) and stored in −20° C. Samples were thawed and cells lysed by adding RIPA (radioimmunoprecipitation assay lysis buffer, Thermo Scientific, Rockland, Ill.) (50 μL), kept in ice for 30 min and sonicated for 1 min in an ice bath. Samples were centrifuged (13 000 g, 5 min, 4° C.) to remove cell debris. The supernatant was stored as aliquots at −80° C. and used when required. At the time of use, samples were thawed and protein content determined using the BCA® Protein Assay reagent (Thermo Scientific, Rockland, Ill.). The volume of the lysate was adjusted with deionized water to normalize protein content to 10-20 μg per mL. To this was added Laemmli buffer (4×) and heated to 100° C. for 5 minutes to denature the protein. The samples were resolved by 12% SDS-PAGE gel electrophoresis at 100V for 90 min. The resolved proteins were transferred to polyvinylidene difluoride (PVDF) membranes (Bio-Rad, Singapore) using transfer buffer at 100V for 120 min. Membranes were then treated with 5% blocking buffer (5% non-fat milk and 0.1% Tween-20 in PBS) and probed with the specific antibody (GAPDH, LC3) by incubating the membranes in blocking buffer containing the antibody at 4° C. overnight. After washing the membranes in PBS containing 0.1% Tween 20 (PBST), the membranes were probed with secondary antibodies (horseradish peroxidase anti mouse IgG, Pierce, USA) in blocking buffer at room temperature for 1 h. They were then washed with PBST and developed using an enhanced chemiluminescence procedure (Amersham ECL Advanced Western Blotting Detection Kit, GE, Healthcare, UK). Immunoblots were viewed using the ImageQuant® RT-ECL imager (GE Healthcare) and the image captured with the ImageQuant® TL software. Antibodies were obtained from the following sources: GAPDH (Cell signaling technology, USA), LC3 (Abgent, USA). Test compound was evaluated at 3 concentrations with 2 repeats for each concentration.

[4] = test system: PC3 cells; assay: Western blot of autophagy marker LC3-II; settings: PC3, 24 h and 48 h
Procedure: as §1

[5] = test system: HepG2 cells; assay: Western blot of autophagy marker LC3-II; settings: HepG2, 24 h and 48 h
Procedure: as §1

CCCCCCCCn1cc(CC(N)=O)c2cc(-c3cccc(C)c3)ccc21 [Cysmethynil, 2-[5-(3-methylphenyl)-1-octyl-1H-indolo-3-yl]acetamide, reference compound]
colony formation [1]: Colony formation was observed with 15 μM cysmethynil but not at higher concentrations (17.5 to 25 μM)
effect on cell cycle distribution [2]: the changes in G1/G2 cell populations were not statistically significant
% Cells in G1 phase ([2]; 12.5 μM): 53.0 (2) %
% Cells in G2 phase ([2]; 12.5 μM): 27.87 (2) %
% Cells in G1 phase ([2]; 17.5 μM): 51.83 (2) %
% Cells in G2 phase ([2]; 17.5 μM): 26.85 (12.28, 3) %
% Cells in G1 phase ([2]; 20.0 μM): 54.85 ( 2) %
% Cells in G2 phase ([2]; 20.0 μM): 32.07 (2) %
LC3-II content (immunoblot) [3]: LC3-II accumulation was evident in MDA MB 231 cells treated with cysmethynil at 20 and 22.5 μM, but not at 17.5 μM
LC3-II content (immunoblot) [4]: negligible LC3II were observed
LC3-II content (immunoblot) [5]: LC3II accumulation was evident after 48 hours but not 24 h

CCCCCCCCn1cc(CN(CC)CC)c2cc(-c3cnc(N)nc3)ccc21 [Compound 8-12, 5-(3-Diethylaminomethyl-1-octyl-1H-indol-5-yl)-pyrimidin-2-ylamine]
colony formation [1]: colony formation was evident only at the lowest concentration of 1 μM and not at higher concentrations (1.5 to 3 μM)
effect on cell cycle distribution [2]: increased cells in the G1 phase while decreasing cells in G2 phase
% Cells in G1 phase ([2]; 0.8 μM): 52.92 (2) %
% Cells in G2 phase ([2]; 0.8 μM): 24.22 (2) %
% Cells in G1 phase ([2]; 1.0 μM): 59.98 (2)^3%
% Cells in G2 phase ([2]; 1.0 μM): 26.99 (2.77, 3) %
% Cells in G1 phase ([2]; 2.0 μM): 66.45 (2)^3%
% Cells in G2 phase ([2]; 2.0 μM): 11.20 (2)^3%
LC3-II content (immunoblot) [3]: increased the content of LC3-II
LC3-II content (immunoblot) [4]: increased the content of LC3-II
LC3-II content (immunoblot) [5]: LC3-II bands were detected in HepG2 cells treated only with 0.5 μM but not 0.25 μM
